Patent US10065990B2, “Cyclic peptide compound, and preparation method, pharmaceutical composition and use thereof” (HANGZHOU GUANYU BIO-MEDICAL CO., LTD, priority 2013, dated 2018)
Read-outs that look alike come from different tables or passages of the source.

Experiments:
HDAC7 = molecular target: T1, HDAC7 (Homo sapiens, UniProt Q8WUI4); assay: HDAC biochemical activity measurement (fluorescent substrate deacetylation);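 further: fluorogenic deacetylation assay using acetyl-lysine substrate at 20 µM, enzyme and compound incubated 30 min at 37 °C, then developer added, fluorescence read at 360/460 nm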; details: HDAC7; 37° C. 30 minutes
T1 sequence (Q8WUI4 1-952): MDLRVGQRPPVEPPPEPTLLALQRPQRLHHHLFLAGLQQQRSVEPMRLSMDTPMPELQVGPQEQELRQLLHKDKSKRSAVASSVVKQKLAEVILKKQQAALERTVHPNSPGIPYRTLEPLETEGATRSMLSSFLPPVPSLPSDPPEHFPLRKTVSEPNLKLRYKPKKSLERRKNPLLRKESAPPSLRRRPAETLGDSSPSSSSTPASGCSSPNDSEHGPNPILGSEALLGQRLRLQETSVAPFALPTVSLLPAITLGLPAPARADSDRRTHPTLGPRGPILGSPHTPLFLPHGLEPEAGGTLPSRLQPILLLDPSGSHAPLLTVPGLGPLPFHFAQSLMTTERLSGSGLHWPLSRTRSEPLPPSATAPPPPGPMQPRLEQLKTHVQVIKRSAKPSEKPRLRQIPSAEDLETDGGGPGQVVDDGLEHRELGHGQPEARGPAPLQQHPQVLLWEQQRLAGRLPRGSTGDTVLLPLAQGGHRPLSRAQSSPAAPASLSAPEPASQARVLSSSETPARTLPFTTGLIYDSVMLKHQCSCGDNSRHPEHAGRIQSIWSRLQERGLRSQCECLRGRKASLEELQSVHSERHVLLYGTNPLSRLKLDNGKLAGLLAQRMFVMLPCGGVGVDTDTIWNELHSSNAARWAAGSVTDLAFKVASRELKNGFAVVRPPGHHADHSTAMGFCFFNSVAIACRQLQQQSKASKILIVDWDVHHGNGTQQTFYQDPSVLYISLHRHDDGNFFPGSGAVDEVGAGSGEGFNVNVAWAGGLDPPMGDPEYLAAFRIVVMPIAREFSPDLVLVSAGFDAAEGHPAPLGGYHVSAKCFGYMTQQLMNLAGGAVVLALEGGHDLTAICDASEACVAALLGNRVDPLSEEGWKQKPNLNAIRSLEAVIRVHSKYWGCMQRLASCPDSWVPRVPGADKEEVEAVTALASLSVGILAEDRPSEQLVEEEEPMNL

[1] = system: A549 (human lung cancer cells); assay: MTT cancer cell growth inhibition; format: cell-based; details: Homo sapiens, A549, 72 h, MTT, 72 hours incubation, read-out: GI50 A54
Procedure, shortened: (§1)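 Cells grown in DMEM or RPMI 1640 with 10% FBS were seeded at 1500/well and left overnight at 37° C., 5% CO2. Compounds at final 10^−5 to 10^−10 M were added in triplicate for 72 h. MTT was then added for 4 h, formazan dissolved in DMSO, and absorbance read at 570 nm to derive GI50.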

[2] = system: BGC-823 (human gastric cancer cells); assay: MTT cancer cell growth inhibition; format: cell-based; details: Homo sapiens, BGC-823, 72 h, MTT, 72 hours incubation, read-out: GI50 BG
Procedure, shortened: as §1

[3] = system: Bel-7402 (human hepatoma cells); assay: MTT cancer cell growth inhibition; format: cell-based; details: Homo sapiens, Bel-7402, 72 h, MTT, 72 hours incubation, Bel-7402 cells; read-out: GI50 Bel-7402
Procedure, shortened: as §1

[4] = system: DU145 (human prostate cancer cells); assay: MTT cancer cell growth inhibition; format: cell-based; details: Homo sapiens, DU-145, 72 h, MTT, 72 hours incubation, read-out: GI50 Du1
Procedure, shortened: as §1

[5] = system: H1975 (non-small cell lung adenocarcinoma); assay: MTT cancer cell growth inhibition; format: cell-based; details: Homo sapiens, NCI-H1975, 72 h, MTT, 72 hours incubation, H1975 cells; read-out: GI50 H1975
Procedure, shortened: as §1

[6] = system: HCC827 (human non-small cell lung cancer cells); assay: MTT cancer cell growth inhibition; format: cell-based; details: Homo sapiens, HCC827, 72 h, MTT, 72 hours incubation, HCC827 cells; read-out: GI50 HCC827
Procedure, shortened: as §1

[7] = system: HT1080 (human fibrosarcoma cells); assay: MTT cancer cell growth inhibition; format: cell-based; details: Homo sapiens, HT-1080, 72 h, MTT, 72 hours incubation, read-out: GI50 HT1
Procedure, shortened: as §1

[8] = system: Hela (human cervical cancer cells); assay: MTT cancer cell growth inhibition; format: cell-based; details: Homo sapiens, HeLa, 72 h, MTT, 72 hours incubation, read-out: GI50 Hela
Procedure, shortened: as §1

[9] = system: Huh-7 (human hepatoma cells); assay: MTT cancer cell growth inhibition; format: cell-based; details: Homo sapiens, Huh-7, 72 h, MTT, 72 hours incubation, Huh-7 cells; read-out: GI50 Huh-7
Procedure, shortened: as §1

[10] = system: K562 (human leukemia cells); assay: MTT cancer cell growth inhibition; format: cell-based; details: Homo sapiens, K562, 72 h, MTT, 72 hours incubation, K562 cells; read-out: GI50 K562
Procedure, shortened: as §1

[11] = system: KBM-5 (human chronic myelogenous leukemia); assay: MTT cancer cell growth inhibition; format: cell-based; details: Homo sapiens, KBM5, 72 h, MTT, 72 hours incubation, KBM-5 cells; read-out: GI50 KBM-5
Procedure, shortened: as §1

[12] = system: KBM5-T315I (human chronic myelogenous leukemia); assay: MTT cancer cell growth inhibition; format: cell-based; details: Homo sapiens, 72 h, MTT, 72 hours incubation, KBM5-T315I cells; read-out: GI50 KBM5-T315I
Procedure, shortened: as §1

[13] = system: MCF-7 (human breast cancer cells); assay: MTT cancer cell growth inhibition; format: cell-based; details: Homo sapiens, MCF7, 72 h, 72 hours incubation, read-out: GI50 MCF
Procedure, shortened: as §1

[14] = system: MDA-MB-231 (breast cancer cells); assay: MTT cancer cell growth inhibition; format: cell-based; details: Homo sapiens, MDA-MB-231, 72 h, read-out: GI50 MDA-MB-231, MTT, 72 hours incubation, MDA-MB-231 cells
Procedure, shortened: as §1

[15] = system: MOLT-4 (human acute lymphoblastic leukemia cells); assay: MTT cancer cell growth inhibition; format: cell-based; details: Homo sapiens, MOLT-4, 72 h, MTT, 72 hours incubation, read-out: GI50 Mol
Procedure, shortened: as §1

[16] = system: N-87 (human gastric cancer cells); assay: MTT cancer cell growth inhibition; format: cell-based; details: Homo sapiens, 72 h, MTT, 72 hours incubation, N-87 cells; read-out: GI50 N-87
Procedure, shortened: as §1

[17] = system: PANC-1 (Pac-1, human pancreatic cancer cells); assay: MTT cancer cell growth inhibition; format: cell-based; details: Homo sapiens, PANC-1, 72 h, MTT, 72 hours incubation, read-out: GI50 PAN
Procedure, shortened: as §1

[18] = system: SGC-7901 (human gastric cancer cells); assay: MTT cancer cell growth inhibition; format: cell-based; details: Homo sapiens, SGC-7901, 72 h, MTT, 72 hours incubation, SGC-7901 cells; read-out: GI50 SGC-7901
Procedure, shortened: as §1

[19] = system: U937 (human leukemia cells); assay: MTT cancer cell growth inhibition; format: cell-based; details: Homo sapiens, U-937, 72 h, MTT, 72 hours incubation, read-out: GI50 U93
Procedure, shortened: as §1

[20] = system: lncap (prostate cancer cells); assay: MTT cancer cell growth inhibition; format: cell-based; details: Homo sapiens, LNCaP, 72 h, MTT, 72 hours incubation, read-out: GI50 lnca
Procedure, shortened: as §1

SMILES | IC50 HDAC7 (HDAC7) | GI50 ([1]; A549 cells) [nM] | GI50 ([2]; BGC-823 cells) [nM] | GI50 [3] [nM] | GI50 ([4]; DU145 cells) [nM] | GI50 [5] [nM] | GI50 [6] [nM] | GI50 ([7]; HT1080 cells) [nM] | GI50 ([8]; Hela cells) [nM] | GI50 [9] [nM] | GI50 [10] [nM] | GI50 [11] [nM] | GI50 [12] [nM] | GI50 ([13]; MCF-7 cells) [nM] | GI50 [14] [nM] | GI50 ([15]; MOLT-4 cells) [nM] | GI50 [16] [nM] | GI50 ([17]; PANC-1 cells) [nM] | GI50 [18] [nM] | GI50 ([19]; U937 cells) [nM] | also measured
C/C=C1\NC(=O)c2nc(ccc2F)CNC(=O)C[C@@H](/C=C/CCSC(C)=O)OC(=O)[C@H](CCCCNC(=O)OCC2c3ccccc3-c3ccccc32)NC1=O [Example 75] | no activity | – | – | 42 | – | 28 | 42 | – | – | 35 | 28 | 61 | 26 | – | 35 | – | 22 | – | 41 | – | GI50 [1]: 40 nM; GI50 [2]: 20 nM; GI50 [4]: 20 nM; GI50 [7]: 40 nM; GI50 [8]: 60 nM; GI50 [13]: 20 nM; GI50 [15]: 30 nM; GI50 [17]: 40 nM; GI50 [19]: 20 nM; GI50 [20]: 30 nM
C/C=C1\NC(=O)c2nc(ccc2F)CNC(=O)C[C@@H](/C=C/CCS)OC(=O)[C@H](CC)NC1=O [Compound 109] | no activity | – | – | 56 | – | 31 | 51 | – | – | 46 | 28 | 82 | 71 | – | 126 | – | 61 | – | 42 | – | GI50 [1]: 50 nM; GI50 [2]: 20 nM; GI50 [4]: 40 nM; GI50 [7]: 70 nM; GI50 [8]: 70 nM; GI50 [13]: 20 nM; GI50 [15]: 30 nM; GI50 [17]: 70 nM; GI50 [19]: 40 nM; GI50 [20]: 30 nM
C/C=C1\NC(=O)c2ccc(F)c(n2)CNC(=O)C[C@@H](/C=C/CCS)OC(=O)[C@H](C)NC1=O [Compound 114] | no activity | – | – | 42 | – | 32 | 71 | – | – | 54 | 38 | 99 | 28 | – | 22 | – | 11 | – | 43 | – | GI50 [1]: 30 nM; GI50 [2]: 60 nM; GI50 [4]: 60 nM; GI50 [7]: 100 nM; GI50 [8]: 70 nM; GI50 [13]: 60 nM; GI50 [15]: 100 nM; GI50 [17]: 60 nM; GI50 [19]: 30 nM; GI50 [20]: 70 nM

More lines, main results first:

IC50 HDAC7 (HDAC7) | GI50 ([1]; A549 cells) [nM] | GI50 ([2]; BGC-823 cells) [nM] | GI50 [3] [nM] | GI50 ([4]; DU145 cells) [nM] | GI50 [5] [nM] | GI50 [6] [nM] | GI50 ([7]; HT1080 cells) [nM] | GI50 ([8]; Hela cells) [nM] | GI50 [9] [nM] | GI50 [10] [nM] | GI50 [11] [nM] | GI50 [12] [nM] | GI50 ([13]; MCF-7 cells) [nM] | GI50 [14] [nM] | GI50 ([15]; MOLT-4 cells) [nM] | GI50 [16] [nM] | GI50 ([17]; PANC-1 cells) [nM] | GI50 [18] [nM] | GI50 ([19]; U937 cells) [nM] | SMILES | also measured
no activity | 20 | 30 | 63 | 60 | 70 | 29 | 80 | 50 | 75 | 32 | 21 | 41 | 60 | 35 | 80 | 39 | 30 | 42 | 20 | C/C=C1\NC(=O)c2ccc(SC)c(n2)CNC(=O)C[C@@H](/C=C/CCSC(=O)CCCCCCC)OC(=O)[C@H](C(C)C)NC1=O [Compound 149] | GI50 ([20]; lncap cells): 50 nM
no activity | 30 | 80 | 23 | 40 | 24 | 35 | 50 | 70 | 58 | 62 | 35 | 53 | 50 | 36 | 50 | 63 | 50 | 75 | 60 | C/C=C1\NC(=O)c2nc(ccc2SC)CNC(=O)C[C@@H](/C=C/CCSC(=O)CCC)OC(=O)[C@H](C(C)C)NC1=O [Compound 159] | GI50 ([20]; lncap cells): 60 nM
no activity | 50 | 30 | 38 | 60 | 35 | 41 | 60 | 70 | 37 | 23 | 15 | 33 | 70 | 18 | 80 | 36 | 40 | 28 | 20 | C/C=C1\NC(=O)c2cc(SC)cc(n2)CNC(=O)C[C@@H](/C=C/CCSC(=O)CCCCCCC)OC(=O)[C@H](C)NC1=O [Compound 181] | GI50 ([20]; lncap cells): 80 nM
no activity | 20 | 50 | 72 | 60 | 35 | 45 | 70 | 70 | 17 | 23 | 49 | 55 | 20 | 51 | 60 | 19 | 10 | 53 | 40 | C/C=C1\NC(=O)c2cc(SC)cc(n2)CNC(=O)C[C@@H](/C=C/CCS)OC(=O)[C@H](C(C)C)NC1=O [Compound 227] | GI50 ([20]; lncap cells): 20 nM
